# Laboratory results as given in article PMC3914206.
# Legend:
# panel of 442 kinases [1] = target: T1, panel of 442 kinases (Homo sapiens, UniProt Q8IYT8); type: binding; details: kinase ULK2; compound concentration 10 µM
# T1 construct: purchased KINOMEscan
# T1 sequence (Q8IYT8 1-1036): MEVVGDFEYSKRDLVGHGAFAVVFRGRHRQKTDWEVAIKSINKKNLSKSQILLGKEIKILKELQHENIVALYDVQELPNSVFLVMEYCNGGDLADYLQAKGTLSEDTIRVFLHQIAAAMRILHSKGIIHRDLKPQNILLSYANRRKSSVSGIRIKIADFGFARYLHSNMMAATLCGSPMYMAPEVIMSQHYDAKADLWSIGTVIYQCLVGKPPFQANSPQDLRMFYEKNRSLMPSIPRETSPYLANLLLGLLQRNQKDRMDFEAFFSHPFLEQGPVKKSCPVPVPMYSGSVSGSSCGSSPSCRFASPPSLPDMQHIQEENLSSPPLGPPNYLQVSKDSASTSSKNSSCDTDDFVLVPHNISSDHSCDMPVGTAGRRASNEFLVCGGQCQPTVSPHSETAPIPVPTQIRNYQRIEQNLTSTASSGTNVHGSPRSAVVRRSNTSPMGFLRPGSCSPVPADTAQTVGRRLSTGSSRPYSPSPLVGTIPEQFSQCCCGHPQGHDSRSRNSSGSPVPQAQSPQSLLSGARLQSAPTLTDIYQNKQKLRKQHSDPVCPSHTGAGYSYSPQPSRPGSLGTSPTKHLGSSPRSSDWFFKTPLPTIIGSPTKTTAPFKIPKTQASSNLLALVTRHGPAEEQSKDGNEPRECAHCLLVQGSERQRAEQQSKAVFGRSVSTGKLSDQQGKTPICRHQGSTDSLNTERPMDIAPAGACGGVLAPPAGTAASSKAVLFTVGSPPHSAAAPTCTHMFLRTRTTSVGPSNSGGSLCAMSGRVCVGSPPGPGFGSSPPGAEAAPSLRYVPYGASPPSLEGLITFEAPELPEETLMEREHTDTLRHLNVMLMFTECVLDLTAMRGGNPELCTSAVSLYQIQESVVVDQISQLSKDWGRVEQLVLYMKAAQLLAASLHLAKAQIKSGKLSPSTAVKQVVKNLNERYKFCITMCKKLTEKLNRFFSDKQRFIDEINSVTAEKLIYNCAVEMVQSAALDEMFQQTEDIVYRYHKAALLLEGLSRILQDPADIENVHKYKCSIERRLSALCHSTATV
# Excerpt: (§1) We assessed the selectivity of members of this scaffold using the KINOMEscan methodology across a near comprehensive panel of 442 kinases [[18,27]].
# panel of 442 kinases [2] = target: T2, panel of 442 kinases (Homo sapiens, UniProt P53350); type: binding; details: Compound Concentration 10 µM
# T2 construct: purchased KINOMEscan
# T2 sequence (P53350 whole entry): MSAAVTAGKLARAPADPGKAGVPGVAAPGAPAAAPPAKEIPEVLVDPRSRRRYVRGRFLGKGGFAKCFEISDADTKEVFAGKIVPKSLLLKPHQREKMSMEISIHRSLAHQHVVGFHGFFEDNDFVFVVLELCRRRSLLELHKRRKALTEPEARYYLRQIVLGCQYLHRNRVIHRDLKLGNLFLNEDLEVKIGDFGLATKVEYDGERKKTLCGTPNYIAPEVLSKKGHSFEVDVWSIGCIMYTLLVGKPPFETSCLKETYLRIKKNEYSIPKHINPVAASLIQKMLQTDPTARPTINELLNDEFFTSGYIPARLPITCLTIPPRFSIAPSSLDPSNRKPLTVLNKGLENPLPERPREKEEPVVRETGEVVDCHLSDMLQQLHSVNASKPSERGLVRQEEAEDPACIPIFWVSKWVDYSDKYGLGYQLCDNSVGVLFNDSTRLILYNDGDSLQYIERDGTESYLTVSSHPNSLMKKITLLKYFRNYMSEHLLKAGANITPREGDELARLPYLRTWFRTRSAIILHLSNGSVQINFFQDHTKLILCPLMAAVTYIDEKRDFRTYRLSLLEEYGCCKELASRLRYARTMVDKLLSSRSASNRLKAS
# Excerpt: as §1
SMILES,"% Ctrl, ULK2 (panel of 442 kinases [1]) [% Ctrl]",KINOMEscan: PLK1 (panel of 442 kinases [2])
"COc1cc(C(=O)N2CCC(N3CCN(C)CC3)CC2)ccc1Nc1ncc2c(n1)N(C1CCCC1)c1ccccc1C(=O)N2C [Compound 25, 11-cyclopentyl-2-((2-methoxy-4-(4-(4-methylpiperazin-1-yl)piperidine-1-carbonyl)phenyl)amino)-5-methyl-5H-benzo[e]pyrimido[5,4-b][1,4]diazepin-6(11H)-one]",75,43
COc1cc(C(=O)N2CCC(N3CCN(C)CC3)CC2)ccc1Nc1ncc2c(n1)N1CCc3cccc(c31)C(=O)N2C [Compound 24],96,0.2
COc1cc(C(=O)N2CCC(N3CCN(C)CC3)CC2)ccc1Nc1ncc2c(n1)N(C)c1ccccc1C(=O)N2C [15 (LRRK2-IN-1)],67,0.7
CCOc1cc(C(=O)N2CCC(N3CCN(C)CC3)CC2)ccc1Nc1ncc2c(n1)N(C1CCCC1)c1ccccc1C(=O)N2C [Compound 26],98,95
